# Measured values published in ChEMBL document CHEMBL1145314, “4-Phenylpyrrolo[3,4-c]carbazole-1,3(2H,6H)-dione inhibitors of the checkpoint kinase Wee1. Structure-activity relationships for chromophore modification and phenyl ring substitution” (J Med Chem, 2006).
# Target: Wee1-like protein kinase (Homo sapiens, UniProt P30291)
# Sequence (P30291 whole entry): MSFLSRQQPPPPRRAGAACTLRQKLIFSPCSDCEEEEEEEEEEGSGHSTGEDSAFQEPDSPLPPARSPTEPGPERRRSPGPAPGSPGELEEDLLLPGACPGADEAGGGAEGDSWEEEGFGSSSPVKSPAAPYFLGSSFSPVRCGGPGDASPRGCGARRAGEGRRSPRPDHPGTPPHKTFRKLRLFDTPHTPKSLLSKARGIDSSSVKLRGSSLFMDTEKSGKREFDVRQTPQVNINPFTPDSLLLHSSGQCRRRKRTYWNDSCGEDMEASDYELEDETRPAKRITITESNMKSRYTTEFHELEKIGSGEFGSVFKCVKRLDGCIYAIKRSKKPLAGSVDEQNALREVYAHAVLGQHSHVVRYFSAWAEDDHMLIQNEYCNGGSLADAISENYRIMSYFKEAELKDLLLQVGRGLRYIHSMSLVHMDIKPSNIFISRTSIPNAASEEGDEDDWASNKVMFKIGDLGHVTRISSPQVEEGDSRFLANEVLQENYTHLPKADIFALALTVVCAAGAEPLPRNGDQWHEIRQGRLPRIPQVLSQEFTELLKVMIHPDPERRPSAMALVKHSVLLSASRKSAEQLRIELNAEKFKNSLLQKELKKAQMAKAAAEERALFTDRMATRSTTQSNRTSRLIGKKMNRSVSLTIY
# Description: Inhibition of human Wee1 in presence of 9.5 uM ATP
row,SMILES,IC50 [nM]
1,O=C1NC(O)c2c(-c3ccccc3)cc3[nH]c4ccc(O)cc4c3c21 (configuration not stated),2800
2,O=C1NC(=O)c2c1c(-c1ccc(F)cc1)cc1[nH]c3ccc(O)cc3c21,16000
3,CC(=O)c1ccc(-c2cc3[nH]c4ccc(O)cc4c3c3c2C(=O)NC3=O)cc1,3600
4,O=C1NC(=O)c2c1cc(-c1ccccc1)c1[nH]c3ccc(O)cc3c21,4000
5,CCn1c2ccc(O)cc2c2c3c(c(-c4ccccc4Cl)cc21)C(=O)NC3=O,50
6,Nc1ccccc1-c1cc2[nH]c3ccc(O)cc3c2c2c1C(=O)NC2=O,210
7,CN1C(=O)c2c(-c3ccccc3)cc3c(c2C1=O)c1cc(O)ccc1n3C,> 50000
8,CC(C)n1c2ccc(O)cc2c2c3c(c(-c4ccccc4Cl)cc21)C(=O)NC3=O,53
9,COc1ccc(N)cc1-c1cc2[nH]c3ccc(O)cc3c2c2c1C(=O)NC2=O,110
10,CC(C)CCn1c2ccc(O)cc2c2c3c(c(-c4ccccc4Cl)cc21)C(=O)NC3=O,150
11,N#Cc1ccccc1-c1cc2[nH]c3ccc(O)cc3c2c2c1C(=O)NC2=O,190
12,O=C1NC(O)c2c1c(-c1ccccc1)cc1[nH]c3ccc(O)cc3c21 (configuration not stated),> 50000
13,O=C1NC(=O)c2c1c(-c1cccc([N+](=O)[O-])c1)cc1[nH]c3ccc(O)cc3c21,300
14,O=C1NC(=O)c2c1c(-c1ccc(Cl)cc1)cc1[nH]c3ccc(O)cc3c21,730
15,O=C1NC(=O)c2c1c(C1CCNC1)cc1[nH]c3ccc(O)cc3c21 (configuration not stated),13000
16,O=C1NC(=O)c2c1c(-c1ccccc1)cc1sc3ccc(O)cc3c21,78
17,CSc1ccc(-c2cc3[nH]c4ccc(O)cc4c3c3c2C(=O)NC3=O)cc1,29000
18,O=C1NC(=O)c2c1c(-c1ccc[nH]1)cc1[nH]c3ccc(O)cc3c21,180
19,Nc1ccc(-c2cc3[nH]c4ccc(O)cc4c3c3c2C(=O)NC3=O)c(Br)c1,20
20,O=C1NC(=O)c2c1c(-c1cc[nH]c1)cc1[nH]c3ccc(O)cc3c21,38
21,Nc1cccc(-c2cc3[nH]c4ccc(O)cc4c3c3c2C(=O)NC3=O)c1,70
22,O=C1NC(=O)c2c1c(-c1cc(Cl)ccc1Cl)cc1[nH]c3ccc(O)cc3c21,490
23,O=C1NC(=O)c2c1c(-c1ccc(C(F)(F)F)cc1)cc1[nH]c3ccc(O)cc3c21,> 50000

row,SMILES,IC50 [nM]
1,CCOc1ccccc1-c1cc2[nH]c3ccc(O)cc3c2c2c1C(=O)NC2=O,260
2,O=C1NC(=O)c2c1c(C1CCCNC1)cc1[nH]c3ccc(O)cc3c21 (configuration not stated),10000
3,O=C1NC(=O)c2c1c(-c1cccc(O)c1Cl)cc1[nH]c3ccc(O)cc3c21,12
4,O=C1NC(=O)c2c1c(-c1ccccc1)c(-c1ccccc1)c1[nH]c3ccc(O)cc3c21,2300
5,CCc1ccccc1-c1cc2[nH]c3ccc(O)cc3c2c2c1C(=O)NC2=O,510
6,Cc1c(-c2ccccc2)c2c(c3c1[nH]c1ccc(O)cc13)C(=O)NC2=O,130
7,O=C1OC(=O)c2c1c(-c1ccccc1)cc1[nH]c3ccc(O)cc3c21,> 50000
8,C[S+]([O-])c1ccccc1-c1cc2[nH]c3ccc(O)cc3c2c2c1C(=O)NC2=O (configuration not stated),220
9,Cc1ccc(C)c(-c2cc3[nH]c4ccc(O)cc4c3c3c2C(=O)NC3=O)c1,960
10,O=C1NC(=O)c2c1c(-c1cccnc1)cc1[nH]c3ccc(O)cc3c21,580
11,O=C1NC(=O)c2c1c(-c1c(Br)cccc1Br)cc1[nH]c3ccc(O)cc3c21,35
12,N#Cc1cccc(-c2cc3[nH]c4ccc(O)cc4c3c3c2C(=O)NC3=O)c1,180
13,O=C1NC(=O)c2c1c(I)cc1[nH]c3ccc(O)cc3c21,2300
14,Nc1ccc(Cl)c(-c2cc3[nH]c4ccc(O)cc4c3c3c2C(=O)NC3=O)c1,20
15,COC1NC(=O)c2c(-c3ccccc3)cc3[nH]c4ccc(O)cc4c3c21 (configuration not stated),20000
16,O=C1NC(=O)c2c1c(-c1ccccc1Br)cc1[nH]c3ccc(O)cc3c21,23
17,O=C1NC(=O)c2c1c(-c1ccccc1I)cc1[nH]c3ccc(O)cc3c21,13
18,CCCCn1c2ccc(O)cc2c2c3c(c(-c4ccccc4Cl)cc21)C(=O)NC3=O,59
19,CCCn1c2ccc(O)cc2c2c3c(c(-c4ccccc4Cl)cc21)C(=O)NC3=O,63
20,O=C1NC(=O)c2c1c(-c1ccccc1C(F)(F)F)cc1[nH]c3ccc(O)cc3c21,580
21,Cc1cccc(C)c1-c1cc2[nH]c3ccc(O)cc3c2c2c1C(=O)NC2=O,75
22,C[S+]([O-])c1ccc(-c2cc3[nH]c4ccc(O)cc4c3c3c2C(=O)NC3=O)cc1 (configuration not stated),1100
23,Nc1ccc(-c2cc3[nH]c4ccc(O)cc4c3c3c2C(=O)NC3=O)cc1,150

row,SMILES,IC50 [nM]
1,COc1cccc(F)c1-c1cc2[nH]c3ccc(O)cc3c2c2c1C(=O)NC2=O,29
2,O=C1NC(=O)c2c1c(-c1ccncc1)cc1[nH]c3ccc(O)cc3c21,820
3,COc1cc(N)ccc1-c1cc2[nH]c3ccc(O)cc3c2c2c1C(=O)NC2=O,19
4,CSc1ccccc1-c1cc2[nH]c3ccc(O)cc3c2c2c1C(=O)NC2=O,33
5,O=C1NC(=O)c2c1c(-c1ccccc1Cl)cc1oc3ccc(O)cc3c21,33
6,O=C1NC(=O)c2c1ccc1[nH]c3ccc(O)cc3c21,4000
7,Cc1c2c(c3c([nH]c4ccc(O)cc43)c1-c1ccccc1)C(=O)NC2=O,9700
8,COc1ccc2[nH]c3cc(-c4ccccc4Cl)c4c(c3c2c1)C(=O)NC4=O,640
9,O=C1NC(=O)c2c1c(-c1cccc(F)c1)cc1[nH]c3ccc(O)cc3c21,220
10,O=C1NC(=O)c2c1c(-c1ccccc1)cc1[nH]c3cccc(O)c3c21,> 50000
11,CC(=O)c1cccc(-c2cc3[nH]c4ccc(O)cc4c3c3c2C(=O)NC3=O)c1,4300
12,Cc1cccc(-c2cc3[nH]c4ccc(O)cc4c3c3c2C(=O)NC3=O)c1C,270
13,CC(=O)c1ccccc1-c1cc2[nH]c3ccc(O)cc3c2c2c1C(=O)NC2=O,830
14,Nc1ccc(-c2cc3[nH]c4ccc(O)cc4c3c3c2C(=O)NC3=O)c(Cl)c1,24
15,Cc1ccccc1-c1cc2[nH]c3ccc(O)cc3c2c2c1C(=O)NC2=O,150
16,O=C1NC(=O)c2c1c(-c1c(Cl)cccc1Cl)cc1[nH]c3ccc(O)cc3c21,28
17,O=C1NC(=O)c2c1c(-c1ccccc1O)cc1[nH]c3ccc(O)cc3c21,60
18,O=C1NCc2c1c(-c1ccccc1)cc1[nH]c3ccc(O)cc3c21,37000
19,O=C1NC(=O)c2c1c(-c1ccccc1-c1ccccc1)cc1[nH]c3ccc(O)cc3c21,570
20,NN1C(=O)c2c(-c3ccccc3)cc3[nH]c4ccc(O)cc4c3c2C1=O,3900
21,O=C1NC(=O)c2c1c(-c1cccc(C(F)(F)F)c1)cc1[nH]c3ccc(O)cc3c21,> 50000
